# Patent EP3046573B1, “AMYLIN ANALOGUES” (Zealand Pharma A/S, priority 2013, dated 2015)
# Numbered stars: 1 amine (or outer) side, 2 acyl side, 3 side chain; on linkers, the order of the positions; unused ones are H or OH. Bridge positions count the residues as written; N and C are the ends. Square brackets hold non-standard residues; d marks the D form. Peptide text beside a SMILES is read from it. * marks the point of attachment. C20 diacid = O=C(O)CCCCCCCCCCCCCCCCCCC(=O)*; γGlu = O=C(O)[C@H](CCC(=O)[*:2])N[*:1]; NMeI = CC[C@H](C)[C@H](NC)C(=O)O; Sar = CNCC(=O)O
# What was measured:
# Sprague Dawley (SD) rats = assay: Acute food intake and body weight in normal Sprague Dawley rats; format: in vivo; settings: vehicle-corrected, dose 30 nmol/kg sc, once; for Body weight loss (%) after 96 hours: mean ± SEM, n = 8
# Summary of the method: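 Normal male-unspecified SD rats, n = 8 per group, given a single s.c. peptide dose of 30 nmol/kg just before dark phase, with vehicle and positive control groups. Food intake recorded at 0, 4, 7, 10, 24, 48, 72 and 96 h; body weight daily; means ± SEM.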
# [1] = Solubility assessment (turbidity absorbance at 325 nm); format: physicochemical; settings: stock 2 mg/ml diluted 1:1, ambient temperature (typically 25°C), n=1; for Solubility, Acetate buffer pH 4: 100 mM acetate buffer pH 4.0; for Solubility, Acetate buffer pH 5: 100 mM acetate buffer pH 5.0; for Solubility, Histidine buffer pH 6: 100 mM histidine buffer pH 6.0; for Solubility, Histidine buffer pH 7: 100 mM histidine buffer pH 7.0; for Solubility, Phosphate buffer pH 6: 100 mM phosphate buffer pH 6.0; for Solubility, Phosphate buffer pH 7: 100 mM phosphate buffer pH 7.0; for Solubility, Phosphate buffer pH 7.5: 100 mM phosphate buffer pH7.5
# Summary of the method: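 Turbidimetric screen across pH 4.0–7.5 in 100 mM acetate, histidine and phosphate buffers. A 2 mg/ml peptide stock (pH 2.5) was diluted 1:1 into each, then A325 measured at ambient temperature; values ≤ 0.02 AU denoted solubility of 1 mg/ml or more.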
SMILES,Food intake inhibition (%) after 48 hours (Sprague Dawley (SD) rats),Body weight loss (%) after 96 hours (Sprague Dawley (SD) rats),"Solubility, Acetate buffer pH 4 [1]","Solubility, Acetate buffer pH 5 [1]","Solubility, Histidine buffer pH 6 [1]","Solubility, Histidine buffer pH 7 [1]","Solubility, Phosphate buffer pH 6 [1]","Solubility, Phosphate buffer pH 7 [1]","Solubility, Phosphate buffer pH 7.5 [1]"
"CC[C@H](C)[C@@H](C(=O)N[C@@H](CC(C)C)C(=O)N[C@@H](CO)C(=O)N[C@@H](CO)C(=O)N[C@H](C(=O)N[C@@H](CCC(=O)O)C(=O)N[C@H](C(=O)NCC(=O)N[C@@H](CO)C(=O)N[C@@H](CCC(=O)O)C(=O)N[C@H](C(=O)N1CCC[C@H]1C(N)=O)[C@@H](C)O)C(C)C)[C@@H](C)O)N(C)C(=O)[C@H](C)NC(=O)CN(C)C(=O)[C@H](Cc1ccccc1)NC(=O)[C@H](CO)NC(=O)[C@H](CO)NC(=O)[C@H](CO)NC(=O)[C@H](CO)NC(=O)[C@H](CCCNC(=N)N)NC(=O)[C@H](Cc1c[nH]cn1)NC(=O)[C@H](CC(C)C)NC(=O)[C@H](Cc1ccccc1)NC(=O)[C@H](CCC(=O)O)NC(=O)[C@H](C)NC(=O)[C@H](CC(C)C)NC(=O)[C@H](CCCNC(=N)N)NC(=O)[C@H](CCC(N)=O)NC(=O)[C@@H](NC(=O)[C@H](C)NC(=O)[C@@H]1CSSC[C@H](NC(=O)[C@H](CCCNC(=N)N)NC(=O)CC[C@H](NC(=O)CCCCCCCCCCCCCCCCCCC(=O)O)C(=O)O)C(=O)N[C@@H](CC(N)=O)C(=O)N[C@@H]([C@@H](C)O)C(=O)N[C@@H](C)C(=O)N[C@@H]([C@@H](C)O)C(=O)N1)[C@@H](C)O [Compound 76, [19CD]-isoGlu-RC()NTATC()ATQRLAEFLHRSSSSF-Gly(Me)-A-Ile(Me)-LSSTEVGSETP-NH2] ({C20 diacid-γGlu}-RCNTATCATQRLAEFLHRSSSSF[Sar]A[NMeI]LSSTEVGSETP-NH2; disulfide 2-7)",100%,11 ± 1.2%,SS (SS indicates solubility ≥ 1mg/ml),II (II indicates solubility ≤ 1 mg/ml),SS (SS indicates solubility ≥ 1mg/ml),SS (SS indicates solubility ≥ 1mg/ml),SS (SS indicates solubility ≥ 1mg/ml),SS (SS indicates solubility ≥ 1mg/ml),SS (SS indicates solubility ≥ 1mg/ml)
"CC[C@H](C)[C@@H](C(=O)N[C@@H](CC(C)C)C(=O)N[C@@H](CO)C(=O)N[C@@H](CO)C(=O)N[C@H](C(=O)N[C@@H](CC(N)=O)C(=O)N[C@H](C(=O)NCC(=O)N[C@@H](CO)C(=O)N[C@@H](CC(N)=O)C(=O)N[C@H](C(=O)N1CCC[C@H]1C(N)=O)[C@@H](C)O)C(C)C)[C@@H](C)O)N(C)C(=O)[C@H](C)NC(=O)CN(C)C(=O)[C@H](Cc1ccccc1)NC(=O)[C@H](CC(N)=O)NC(=O)[C@H](CC(N)=O)NC(=O)[C@H](CO)NC(=O)[C@H](CO)NC(=O)[C@H](CCCNC(=N)N)NC(=O)[C@H](Cc1c[nH]cn1)NC(=O)[C@H](CC(C)C)NC(=O)[C@H](Cc1ccccc1)NC(=O)[C@H](CCC(=O)O)NC(=O)[C@H](C)NC(=O)[C@H](CC(C)C)NC(=O)[C@H](CCCNC(=N)N)NC(=O)[C@H](CCC(N)=O)NC(=O)[C@@H](NC(=O)[C@H](C)NC(=O)[C@@H]1CSSC[C@H](NC(=O)[C@H](CCCCN)NC(=O)[C@H](CCCCN)NC(=O)CC[C@H](NC(=O)CCCCCCCCCCCCCCCCCCC(=O)O)C(=O)O)C(=O)N[C@@H](CC(N)=O)C(=O)N[C@@H]([C@@H](C)O)C(=O)N[C@@H](C)C(=O)N[C@@H]([C@@H](C)O)C(=O)N1)[C@@H](C)O [Compound 87, [19CD]-isoGlu-KKC()NTATC()ATQRLAEFLHRSSNNF-Gly(Me)-A-Ile(Me)-LSSTNVGSNTP-NH2] ({C20 diacid-γGlu}-KKCNTATCATQRLAEFLHRSSNNF[Sar]A[NMeI]LSSTNVGSNTP-NH2; disulfide 3-8)",98%,10 ± 1.2%,SS (SS indicates solubility ≥ 1mg/ml),SS (SS indicates solubility ≥ 1mg/ml),SS (SS indicates solubility ≥ 1mg/ml),SS (SS indicates solubility ≥ 1mg/ml),SS (SS indicates solubility ≥ 1mg/ml),SS (SS indicates solubility ≥ 1mg/ml),SS (SS indicates solubility ≥ 1mg/ml)
